According to patent EP0673649A1, “Pharmaceutical compositions for the prolonged release of trimetazidine after oral administration” (ADIR ET COMPAGNIE, priority 1994, dated 1995):

Legend:
[1] = plasticizer added at 20 % to Eudragit RS® film; measured with chlorhydrate de phénylpropanolamine; cited from earlier work
[2] = in vitro dissolution / release of trimetazidine dihydrochloride from reservoir forms; format: physicochemical; conditions: release of trimetazidine dihydrochloride through a film containing this plasticizer (figure 1)
[3] = solubility in water of trimetazidine dihydrochloride; format: physicochemical; conditions: read-out: solubilité du dichlorhydrate dans l'eau
Description: Le poids moléculaire de la trimétazidine sous forme de base est de 266,33 et la solubilité du dichlorhydrate dans l'eau supérieure à 1000 mg/ml. De ce fait, il était très difficile d'obtenir des comprimés matriciels contrôlant la libération du principe actif sur plus de 16 heures. Ce problème a été résolu par l'utilisation du système réservoir décrit dans la présente invention.

[4] = immediate-release oral forms; background statement; cited from earlier work

SMILES | Perméabilité [1] [mg.cm⁻².h⁻¹] | temps de latence [2] | solubility [3] [mg/mL] | demi-vie plasmatique [4] [heures]
CCOC(=O)c1ccccc1C(=O)OCC [Diéthylphtalate] | 14.8 | – | – | –
CC(=O)OCC(COC(C)=O)OC(C)=O [Triacétine] | 6.2 | très long qui peut atteindre quatre heures | – | –
COc1ccc(CN2CCNCC2)c(OC)c1OC [dichlorhydrate de trimétazidine, 1-(2,3,4-triméthoxybenzyl)pipérazine] | – | – | > 1000 | < 6
